From patent publication US9499550B2 (BRISTOL-MYERS SQUIBB COMPANY, priority 2012, dated 2016)
Read-outs that look alike come from different tables or passages of the source.

What was measured:
[1] = tested on: HCV genotype 1a (H77 strain) replicon in HUH-7 cells; assay: HCV replicon luciferase reporter assay, genotype 1a; type: cell-based; conditions: Hepatitis C virus, Huh-7, 72 h, HCV genotype 1a replicon luciferase, 3 days incubation, read-out: LE_1a (EC50, range)
Method in brief: (§1)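 Replicon inhibition for both genotypes was measured as Renilla luciferase signal (EnduRen, 7.5 μM final, 2 h) after 3-day, 37° C exposure of replicon-bearing HUH-7 cells in 4% FCS DMEM, 0.5% DMSO. The 1b construct carries S1179I; the 1a H77 construct carries P1496L and S2204I. Twenty-point, 3-fold dilutions were fitted four-parametrically for EC50, and CC50 was taken from multiplexed Cell Titer-Blue.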

[2] = tested on: HCV genotype 1b (Con1) replicon in HUH-7 cells; assay: HCV replicon luciferase reporter assay, genotype 1b; type: cell-based; conditions: Hepatitis C virus, Huh-7, 72 h, HCV genotype 1b replicon luciferase, 3 days incubation, read-out: LE_1b (EC50, range)
Method in brief: as §1

## COc1ccc2c(O[C@@H]3C[C@H]4C(=O)N[C@]5(C(=O)NS(=O)(=O)C6(Cl)CC6)C[C@H]5/C=C\CC[C@@H](C)C[C@@H](C)[C@H](NC(=O)OC(C)(C)C(F)(F)F)C(=O)N4C3)ncc(OC)c2c1 [Compound 4124]
[1]; GETYPE1A
  EC50: < 5.46 nM
[2]; GETYPE1B
  EC50: < 5.46 nM

## COc1ccc2c(O[C@@H]3C[C@H]4C(=O)N[C@]5(C(=O)NS(=O)(=O)C6(Cl)CC6)C[C@H]5/C=C\CC[C@@H](C)C[C@@H](C)[C@H](NC(=O)OC(C)(C)C)C(=O)N4C3)ncc(OC)c2c1 [Compound 4125, tert-butyl (2R,6S,7R,9R,13aS,14aR,16aS,Z)-14a-(1-chlorocyclopropylsulfonylcarbamoyl)-2-(4,6-dimethoxyisoquinolin-1-yloxy)-7,9-dimethyl-5,16-dioxo-1,2,3,5,6,7,8,9,10,11,13a,14,14a,15,16,16a-hexadecahydrocyclopropa[e]pyrrolo[1,2-a][1,4]diazacyclopentadecin-6-ylcarbamate]
[1]
  EC50: < 5.46 nM
[2]
  EC50: < 5.46 nM

## CCC1(S(=O)(=O)NC(=O)[C@@]23C[C@H]2/C=C\CC[C@H](C)C[C@@H](C)[C@H](NC(=O)OC(C)(C)C(F)(F)F)C(=O)N2C[C@H](Oc4nccc5cc(OC)c(F)cc45)C[C@H]2C(=O)N3)CC1 [Compound 4126]
[1]; GETYPE1A
  EC50: < 5.46 nM
[2]; GETYPE1B
  EC50: < 5.46 nM

## CCC1(S(=O)(=O)NC(=O)[C@@]23C[C@H]2/C=C\CC[C@@H](C)C[C@@H](C)[C@H](NC(=O)OC(C)(C)C(F)(F)F)C(=O)N2C[C@H](Oc4nccc5cc(OC)c(F)cc45)C[C@H]2C(=O)N3)CC1 [Compound 4127]
[1]; GETYPE1A
  EC50: 4.82 to 103 nM
[2]; GETYPE1B
  EC50: < 5.46 nM

## COc1ccc2c(O[C@@H]3C[C@H]4C(=O)N[C@]5(C(=O)NS(=O)(=O)C6(CF)CC6)C[C@H]5/C=C\CC[C@@H](C)C[C@@H](C)[C@H](NC(=O)OC(C)(C)C(F)(F)F)C(=O)N4C3)nc(-c3ccc(OC(C)C)cc3)cc2c1 [Compound 4128]
[1]; GETYPE1A
  EC50: < 5.46 nM
[2]; GETYPE1B
  EC50: < 5.46 nM

## COc1cnc(O[C@@H]2C[C@H]3C(=O)N[C@]4(C(=O)NS(=O)(=O)C5(CF)CC5)C[C@H]4/C=C\CC[C@@H](C)C[C@@H](C)[C@H](NC(=O)OC(C)(C)C(F)(F)F)C(=O)N3C2)c2cccc(Cl)c12 [Compound 4129]
[1]; GETYPE1A
  EC50: < 5.46 nM
[2]; GETYPE1B
  EC50: < 5.46 nM

## C[C@@H]1CC/C=C\[C@@H]2C[C@@]2(C(=O)NS(=O)(=O)C2(CF)CC2)NC(=O)[C@@H]2C[C@@H](Oc3cnc4ccccc4n3)CN2C(=O)[C@@H](NC(=O)OC(C)(C)C)[C@H](C)C1 [Compound 4130, tert-butyl (2R,6S,7R,9R,13aS,14aR,16aS,Z)-14a-(1-(fluoromethyl)cyclopropylsulfonylcarbamoyl)-7,9-dimethyl-5,16-dioxo-2-(quinoxalin-2-yloxy)-1,2,3,5,6,7,8,9,10,11,13a,14,14a,15,16,16a-hexadecahydrocyclopropa[e]pyrrolo[1,2-a][1,4]diazacyclopentadecin-6-ylcarbamate]
[1]
  EC50: 4.82 to 103 nM
[2]
  EC50: 4.82 to 103 nM

## COc1ccc2c(O[C@@H]3C[C@H]4C(=O)N[C@]5(C(=O)NS(=O)(=O)C6(C)CC6)C[C@H]5/C=C\CC[C@@H](C)C[C@@H](C)[C@H](NC(=O)OC(C)(C)C)C(=O)N4C3)ncc(N3C[C@@H](C)O[C@@H](C)C3)c2c1 [Compound 4131, tert-butyl (2R,6S,7R,9R,13aS,14aR,16aS,Z)-2-(4-((2S,6R)-2,6-dimethylmorpholino)-6-methoxyisoquinolin-1-yloxy)-7,9-dimethyl-14a-(1-methylcyclopropylsulfonylcarbamoyl)-5,16-dioxo-1,2,3,5,6,7,8,9,10,11,13a,14,14a,15,16,16a-hexadecahydrocyclopropa[e]pyrrolo[1,2-a][1,4]diazacyclopentadecin-6-ylcarbamate]
[1]
  EC50: < 5.46 nM
[2]
  EC50: < 5.46 nM

## COc1ccc2c(O[C@@H]3C[C@H]4C(=O)N[C@]5(C(=O)NS(=O)(=O)C6(C)CC6)C[C@H]5/C=C\CC[C@@H](C)C[C@@H](C)[C@H](NC(=O)OC(C)(C)C(F)(F)F)C(=O)N4C3)ncc(N3C[C@@H](C)O[C@@H](C)C3)c2c1 [Compound 4132]
[1]; GETYPE1A
  EC50: < 5.46 nM
[2]; GETYPE1B
  EC50: < 5.46 nM

## C[C@@H]1CC/C=C\[C@@H]2C[C@@]2(C(=O)NS(=O)(=O)C2(C)CC2)NC(=O)[C@@H]2C[C@@H](Oc3ncc(OC(=O)OC(C)(C)C(F)(F)F)c4ccccc34)CN2C(=O)[C@@H](NC(=O)OC(C)(C)C(F)(F)F)[C@H](C)C1 [Compound 4133]
[1]; GETYPE1A
  EC50: 4.82 to 103 nM
[2]; GETYPE1B
  EC50: < 5.46 nM

## C=COc1cnc(O[C@@H]2C[C@H]3C(=O)N[C@]4(C(=O)NS(=O)(=O)C5(C)CC5)C[C@H]4/C=C\CC[C@@H](C)C[C@@H](C)[C@H](NC(=O)OC(C)(C)C)C(=O)N3C2)c2ccccc12 [Compound 4134, tert-butyl (2R,6S,7R,9R,13aS,14aR,16aS,Z)-7,9-dimethyl-14a-(1-methylcyclopropylsulfonylcarbamoyl)-5,16-dioxo-2-(4-(vinyloxy)isoquinolin-1-yloxy)-1,2,3,5,6,7,8,9,10,11,13a,14,14a,15,16,16a-hexadecahydrocyclopropa[e]pyrrolo[1,2-a][1,4]diazacyclopentadecin-6-ylcarbamate]
[1]
  EC50: < 5.46 nM
[2]
  EC50: < 5.46 nM

## COc1ccc2c(O[C@@H]3C[C@H]4C(=O)N[C@]5(C(=O)NS(=O)(=O)C6(C)CC6)C[C@H]5/C=C\CC[C@@H](C)C[C@@H](C)[C@H](NC(=O)OC(C)(C)C(F)(F)F)C(=O)N4C3)ncc(N3CCOCC3)c2c1 [Compound 4135]
[1]; GETYPE1A
  EC50: < 5.46 nM
[2]; GETYPE1B
  EC50: < 5.46 nM

## CCOc1cnc(O[C@@H]2C[C@H]3C(=O)N[C@]4(C(=O)NS(=O)(=O)C5(C)CC5)C[C@H]4/C=C\CC[C@@H](C)C[C@@H](C)[C@H](NC(=O)OC(C)(C)C)C(=O)N3C2)c2ccc(OC)cc12 [Compound 4136, tert-butyl (2R,6S,7R,9R,13aS,14aR,16aS,Z)-2-(4-ethoxy-6-methoxyisoquinolin-1-yloxy)-7,9-dimethyl-14a-(1-methylcyclopropylsulfonylcarbamoyl)-5,16-dioxo-1,2,3,5,6,7,8,9,10,11,13a,14,14a,15,16,16a-hexadecahydrocyclopropa[e]pyrrolo[1,2-a][1,4]diazacyclopentadecin-6-ylcarbamate]
[1]
  EC50: < 5.46 nM
[2]
  EC50: < 5.46 nM

## COc1ccc2c(O[C@@H]3C[C@H]4C(=O)N[C@]5(C(=O)NS(=O)(=O)C6(C)CC6)C[C@H]5/C=C\CC[C@@H](C)C[C@@H](C)[C@H](NC(=O)OC(C)(C)C)C(=O)N4C3)ncc(N3CCOCC3)c2c1 [Compound 4137, tert-butyl (2R,6S,7R,9R,13aS,14aR,16aS,Z)-2-(6-methoxy-4-morpholinoisoquinolin-1-yloxy)-7,9-dimethyl-14a-(1-methylcyclopropylsulfonylcarbamoyl)-5,16-dioxo-1,2,3,5,6,7,8,9,10,11,13a,14,14a,15,16,16a-hexadecahydrocyclopropa[e]pyrrolo[1,2-a][1,4]diazacyclopentadecin-6-ylcarbamate]
[1]
  EC50: < 5.46 nM
[2]
  EC50: < 5.46 nM

## CCOc1cnc(O[C@@H]2C[C@H]3C(=O)N[C@]4(C(=O)NS(=O)(=O)C5(C)CC5)C[C@H]4/C=C\CC[C@@H](C)C[C@@H](C)[C@H](NC(=O)Oc4ccc(F)cc4F)C(=O)N3C2)c2ccccc12 [Compound 4138, 2,4-difluorophenyl (2R,6S,7R,9R,13aS,14aR,16aS,Z)-2-(4-ethoxyisoquinolin-1-yloxy)-7,9-dimethyl-14a-(1-methylcyclopropylsulfonylcarbamoyl)-5,16-dioxo-1,2,3,5,6,7,8,9,10,11,13a,14,14a,15,16,16a-hexadecahydrocyclopropa[e]pyrrolo[1,2-a][1,4]diazacyclopentadecin-6-ylcarbamate]
[1]
  EC50: 4.82 to 103 nM
[2]
  EC50: 4.82 to 103 nM

## CCOc1cnc(O[C@@H]2C[C@H]3C(=O)N[C@]4(C(=O)NS(=O)(=O)C5(C)CC5)C[C@H]4/C=C\CC[C@@H](C)C[C@@H](C)[C@H](NC(=O)Oc4ccccc4F)C(=O)N3C2)c2ccccc12 [Compound 4139, 2-fluorophenyl (2R,6S,7R,9R,13aS,14aR,16aS,Z)-2-(4-ethoxyisoquinolin-1-yloxy)-7,9-dimethyl-14a-(1-methylcyclopropylsulfonylcarbamoyl)-5,16-dioxo-1,2,3,5,6,7,8,9,10,11,13a,14,14a,15,16,16a-hexadecahydrocyclopropa[e]pyrrolo[1,2-a][1,4]diazacyclopentadecin-6-ylcarbamate]
[1]
  EC50: 4.82 to 103 nM
[2]
  EC50: 4.82 to 103 nM

## CCOc1cnc(O[C@@H]2C[C@H]3C(=O)N[C@]4(C(=O)NS(=O)(=O)C5(C)CC5)C[C@H]4/C=C\CC[C@@H](C)C[C@@H](C)[C@H](NC(=O)Oc4ccccc4)C(=O)N3C2)c2ccccc12 [Compound 4140, phenyl (2R,6S,7R,9R,13aS,14aR,16aS,Z)-2-(4-ethoxyisoquinolin-1-yloxy)-7,9-dimethyl-14a-(1-methylcyclopropylsulfonylcarbamoyl)-5,16-dioxo-1,2,3,5,6,7,8,9,10,11,13a,14,14a,15,16,16a-hexadecahydrocyclopropa[e]pyrrolo[1,2-a][1,4]diazacyclopentadecin-6-ylcarbamate]
[1]
  EC50: < 5.46 nM
[2]
  EC50: < 5.46 nM

## COc1ccc2c(O[C@@H]3C[C@H]4C(=O)N[C@]5(C(=O)NS(=O)(=O)C6(C)CC6)C[C@H]5/C=C\CC[C@@H](C)C[C@@H](C)[C@H](NC(=O)C5CCN(C(C)=O)CC5)C(=O)N4C3)ncc(OC)c2c1 [Compound 4141, (2R,6S,7R,9R,13aS,14aR,16aS,Z)-6-(1-acetylpiperidine-4-carboxamido)-2-(4,6-dimethoxyisoquinolin-1-yloxy)-7,9-dimethyl-N-(1-methylcyclopropylsulfonyl)-5,16-dioxo-1,2,3,5,6,7,8,9,10,11,13a,14,14a,15,16,16a-hexadecahydrocyclopropa[e]pyrrolo[1,2-a][1,4]diazacyclopentadecine-14a-carboxamide]
[1]
  EC50: 4.82 to 103 nM
[2]
  EC50: 4.82 to 103 nM
